In general, IC50 refers to the midpoint of a concentration-inhibition curve.

The values that follow come from ChEMBL document CHEMBL1155598, “Microcyclamide, a cytotoxic cyclic hexapeptide from the cyanobacterium Microcystis aeruginosa” (J Nat Prod, 2000).

This test relates to P388. Nature of the test: Cytotoxicity against mouse P388 cells after 3 days by MTT assay. It counts as functional, cell-based. The settings on record: P388, 72 h. Background: Tetrazolium assays rely on reduction of a dye to a coloured formazan, in cell work by metabolically active cells.

The structures appear in SMILES notation. Values after ≈ are worked out from the molar mass of the structure shown.

`CC[C@H](C)[C@@H]1NC(=O)c2nc(oc2C)[C@H](C)NC(=O)c2csc(n2)[C@H](Cc2cncn2C)NC(=O)c2csc1n2` [MICROCYCLAMIDE] gave an IC50 of 1.2 µg/mL (≈ 2.06 µM).
